Measured values taken from US20220364989A1, “METHOD FOR MEASURING PHOTOTOXICITY OR PHOTOALLERGY AND REAGENT FOR USE THEREIN” (FUJIFILM Corporation, priority 2018, published 2022).
Read-outs that look alike come from different tables or passages of the source.

Assays:
[1] = Average score of NAC and NAL depletion and phototoxicity or photoallergy determination, fluorescence detection; settings: single compound; for Average score (%): without light irradiation
[2] = NAC depletion under and without ultraviolet irradiation, HPLC with UV detection (281 nm); settings: for NAC Depletion (%) without light irradiation: 25° C. 24 hours light-shielded; for NAC Depletion (%) without light irradiation / NAC Depletion (%) under light irradiation: test substance solution 1 mmol/L; for NAC Depletion (%) under light irradiation: 2,000 μW/cm^2 for 1 hour then 25° C. 23 hours
[3] = NAL depletion under and without ultraviolet irradiation, HPLC with fluorescence detection (284 nm excitation, 333 nm fluorescence); settings: single compound; for NAL Depletion (%): without light irradiation
[4] = NAL depletion under and without ultraviolet irradiation, HPLC with UV detection (281 nm); settings: for NAL Depletion (%) without light irradiation: 25° C. 24 hours light-shielded; for NAL Depletion (%) without light irradiation / NAL Depletion (%) under light irradiation: test substance solution 1 mmol/L; for NAL Depletion (%) under light irradiation: 2,000 μW/cm^2 for 1 hour then 25° C. 23 hours
[5] = Average score of NAC and NAL depletion and phototoxicity or photoallergy determination, UV detection; settings: for Average score (%) without light irradiation / Average score (%) under light irradiation: average of NAC and NAL depletion
[6] = cited from earlier work
[7] = cited from earlier work; remark: listed apart in the source
[8] = NAC depletion under and without ultraviolet irradiation, HPLC with fluorescence detection (284 nm excitation, 333 nm fluorescence); settings: single compound; for NAC Depletion (%): without light irradiation

Row | Compound | Difference in depletion (under light irradiation - without light irradiation) Average score (%) [1] [%] | Average score (%) [1] [%] | Difference in depletion (under light irradiation - without light irradiation) NAC (%) [2] [%] | NAC Depletion (%) without light irradiation [2] [%] | NAC Depletion (%) under light irradiation [2] [%] | Difference in depletion (under light irradiation - without light irradiation) NAL (%) [3] [%] | NAL Depletion (%) [3] [%] | NAL Depletion (%) without light irradiation [4] [%] | NAL Depletion (%) under light irradiation [4] [%] | Average score (%) without light irradiation [5] [%] | In vivo phototoxicity ([6]; reported in References 1 to 3) | In vivo photoallergy ([7]; reported in References 1 and 2) | Difference in depletion (under light irradiation - without light irradiation) NAC (%) [8] [%] | NAC Depletion (%) [8] [%] | Difference in depletion (under light irradiation - without light irradiation) NAL (%) [4] [%] | Difference in depletion (under light irradiation - without light irradiation) Average score (%) [5] [%] | Average score (%) under light irradiation [5] [%] | Average score (%) ([5]; under light irradiation, single compound) | In vivo phototoxicity ([6]; in vivo) | In vivo photoallergy ([7]; in vivo)
1 | CC(CN1c2ccccc2Sc2ccccc21)N(C)C.Cl (racemic) [compound 14] | 41.5 | 12.2 | 61.9 | 27.6 | 89.5 | 6.6 | 0.8 | 3.5 | −438.6 | 15.6 | Positive | Positive | 76.4 | 23.6 |  |  |  |  |  | 
2 | CC(C)O [compound 47] | −0.1 | 0.3 | 1.7 | 0.0 | 1.7 | 0.3 | 0.0 | 1.5 | 0.3 | 0.8 | Negative | Negative | −0.5 | 0.5 | −1.2 | 0.2 | 1.0 |  |  | 
3 | CC(C)OC(=O)C(C)(C)Oc1ccc(C(=O)c2ccc(Cl)cc2)cc1 [compound 38] | 67.8 | 0.0 |  | 0.0 | −1178.7 | 37.0 | 0.0 | 0.0 | 40.7 | 0.0 | Positive |  | 98.7 | 0.0 | 40.7 |  |  |  |  | 
4 | C[S+](C)[O-] [No. 58, Dimethyl sulfoxide] |  |  |  |  |  |  |  |  |  |  |  |  |  |  |  |  |  | 0.4 | Negative | Negative
5 | COc1c2ccoc2cc2oc(=O)ccc12 [compound 31] | 48.9 | 0.1 | 89.6 | 1.1 | 90.6 | 6.0 | 0.2 | 0.2 | 8.4 | 0.6 | Positive | Negative | 91.9 | 0.0 | 8.2 | 48.9 | 49.5 |  |  | 
